Results reported in patent US20090197914A1, “Piperidine Derivatives, Their Process for Preparation, Their Use as Therapeutic Agents and Pharmaceutical Compositions Containing Them” (priority 2006, published 2009).

How the values were obtained:
[1] = biological target: T1, human recombinant CCR3 receptors (Homo sapiens, UniProt P51677); assay: Compound affinity at human recombinant CCR3 receptors by radioligand competition, CHO-K1 cell membranes; format: binding; conditions: mean pKi by Cheng-Prussof correction of pIC50, minimum of 2 separate experiments, 2 nM [3H] ligand, 2 h at 37° C.
T1 construct: expressed in transfected cells; membranes
T1 sequence (P51677 1-355): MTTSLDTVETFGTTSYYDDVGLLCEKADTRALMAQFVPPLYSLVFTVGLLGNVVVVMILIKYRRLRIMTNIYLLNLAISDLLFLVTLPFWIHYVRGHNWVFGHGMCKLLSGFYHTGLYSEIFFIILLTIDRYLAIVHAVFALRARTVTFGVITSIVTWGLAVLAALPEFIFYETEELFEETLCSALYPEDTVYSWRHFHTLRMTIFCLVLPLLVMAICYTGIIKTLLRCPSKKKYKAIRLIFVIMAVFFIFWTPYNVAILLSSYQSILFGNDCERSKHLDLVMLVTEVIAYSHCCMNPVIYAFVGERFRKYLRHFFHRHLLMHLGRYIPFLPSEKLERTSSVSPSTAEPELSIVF
Method: Determination of Compound Affinity at Human Recombinant CCR3 Receptors Assessed By Competition of [^3H]-4-(2,4-dichloro-3-methylphenoxy)-1′-[4-(methylsulfonyl)benzoyl]-1,4′-bipiperidine for CHO-K1 Cell Membranes In Vitro
Membranes, prepared from CHO-K1 cells stably expressing recombinant human CCR3, suspended in assay buffer (50 mM Tris-Base, pH 7.4; containing sodium chloride (100 mM) and magnesium chloride (2 mM)) were incubated in the presence of 2 nM [^3H]-4-(2,4-dichloro-3-methylphenoxy)-1′-[4-(methylsulfonyl)benzoyl]-1,4′-bipiperidine, along with vehicle (1% (v/v) DMSO), 4-(4-chloro-3-methylphenoxy)-1′-[2-(methylsulfonyl)benzoyl]-1,4′-bipiperidine (to define non-specific binding) or test compound for 2 h at 37° C. in round bottomed 96-well plates. […] Four washes (250 μL) with wash buffer (50 mM Tris-Base, pH 7.4 containing sodium chloride (500 mM) and magnesium chloride (2 mM)) were performed at 4° C. to remove unbound radioactivity. […] The plates were sealed (TopSeal A) and filter-bound radioactivity was measured with a scintillation counter (TopCount, Packard BioScience) using a 1 minute counting protocol.
Specific binding was determined from values of the control wells minus the values for the NSB wells for each assay plate. […] Data were presented as mean pKi values (calculated by applying a Cheng-Prussof correction to pIC50 values) from a minimum of 2 separate experiments.

[2] = Intrinsic clearance with human liver microsomes; format: in vitro ADME; conditions: human liver microsomes 1 mg protein/ml, NADPH, pH 7.4
Method: Determination of Intrinsic Clearance with Human Liver Microsomes
Frozen human liver microsomes (BD Gentest, Oxford) were defrosted and were then diluted with 0.1 M pH 7.4 phosphate buffer at 4° C. to 1 mg protein/ml. 0.45 mL aliquots of the microsome suspension were dispensed into flat-bottomed vials (1 per compound) and were allowed to come to room temperature (5 min). During the warming time, 5 μL of solution of each test compound (typically 100 μM in DMSO) was dispensed into separate vials resulting in a final DMSO concentration of 1%. 50 μL of a 10 mM solution of NADPH in phosphate buffer (0.1 M pH 7.4, 37° C.) was added to each vial to initiate metabolism.
50 μL Aliquots of the mixtures were removed at measured intervals and were immediately quenched by addition to 100 μL of methanol cooled in ice. The quenched samples were kept cold (at −20° C. or less) for at least 1 h and were then centrifuged to remove protein.
The supernatant solution was analysed using quantitative LCMS for the presence of test compound. From the concentrations of test compound at different time points a T1/2 may be calculated which may be converted to an intrinsic clearance using the equation: CLint=ln 2/T1/2.

Ki [1]: 3.16 nM | CLint scaled at 1 µM [2]: < 0.18 L/h/kg
SMILES: Cc1c(CN2CCC(NC(=O)COc3nc(N)c(C(=O)O)cc3F)CC2)ccc(Cl)c1Cl [Example 4, 2-Amino-6-{[1-(3,4-dichloro-2-methyl-benzyl)-piperidin-4-ylcarbamoyl]-methoxy}-5-fluoro-nicotinic acid]
